Test system: electrophoretically separated proteins (Precision Plus Protein Standard) in a SDS-PAGE gel
Assay: Detection of electrophoretically separated proteins in a SDS-PAGE gel by luminescent staining
Conditions: for Staining of proteins in gel (yes/no): Example 18, FIG. 4: 1.5 μM complex, 30% MeOH, 14% acetic acid, room temperature, 90 minutes
Method: A gel preparation procedure is now described. Five μL of an unstained Precision Plus Protein Standard (Catalog No. 161-0363 from Bio-Rad Laboratories (Hercules, Calif.) (hereinafter, “Bio-Rad”)) were separated on the left column of a polyacrylamide pre-cast gel (Catalog No. 161-1176, a Ready Gel from Bio-Rad) in running buffer containing 20 mM glycine, 2.5 mM Tris and 0.1% SDS, using a standard SDS-PAGE procedure. Five 5 μL of the same standard diluted five times were separated on the right column of the polyacrylamide pre-cast gel under the same conditions.
The foregoing procedure was used to prepare one gel, which was further processed as described below using a particular staining solution. Separately, the same procedure was used to prepare another gel, which was further processed as described below using a different staining solution.
At the end of each of these periods, the gel was taken out of the solution, illuminated, and photographed, and if a further period remained, returned to the solution until the end of that further period. A UV transilluminator (300-nm wavelength) was used to illuminate the gel and Polaroid 667 black-and-white film was used to photograph the gel. The gel was not destained before being photographed.
A gel was prepared according to the gel preparation procedure described in connection with Example 15. The gel was then processed as now described. The gel was placed in a fixation solution comprising 50% MeOH and 7% acetic acid for 30 minutes to fix the gel. […] The gel was not destained before being photographed.
A gel was prepared according to the gel preparation procedure described in connection with Example 15. The gel was then processed as now described. The gel was placed in a fixation solution comprising 50% MeOH and 7% acetic acid for 1 hour to fix the gel. […] The gel was not destained before being photographed.
Three gels were prepared, each according to the gel preparation procedure described in connection with Example 15. One of the gels was stained using a staining solution comprising 1.5 μM of [Ru(bpy)3]Cl2 (Aldrich, Milwaukee, Wis.), wherein “bpy” is unsubstituted 2,2′-bipyridine, 30% MeOH and 14% acetic acid. Another of the gels was stained using a staining solution comprising 1.5 μM of [Ru(1,10-phenanthroline)3]Cl2 (Aldrich, Milwaukee, Wis.), 30% MeOH and 14% acetic acid. […] Each gel was stained by incubating it in the appropriate staining solution at room temperature for 90 minutes, whereupon each gel was taken out of the staining solution, illuminated and photographed in the manner described in connection with Example 15. No gel was destained before being photographed.

Row | Molecule | Staining of proteins in gel (yes/no) (not destained) | Protein staining in gel (sensitivity, background) (Example 17, FIG. 3: fixed gel, 2 μM complex, 1% ethanol in H2O, overnight, not destained) | Protein staining compared with SYPRO Ruby stain (Example 17, FIG. 3 versus FIG. 1, without destaining)
1 | [Cl][Ru][Cl].c1ccc(-c2ccccn2)nc1.c1ccc(-c2ccccn2)nc1.c1ccc(-c2ccccn2)nc1 [[Ru(bpy)3]Cl2] | failed to stain proteins | – | –
2 | [Cl][Ru][Cl].c1cnc2c(c1)ccc1cccnc12.c1cnc2c(c1)ccc1cccnc12.c1cnc2c(c1)ccc1cccnc12 [[Ru(1,10-phenanthroline)3]Cl2] | failed to stain proteins | – | –
3 | Re[(bathocuproin disulfonate)(CO)3(4-phenylpyridine)]^−Na^+ [Complex No. 2] | – | good sensitivity and relatively low background | performing at least as well as, if not outperforming, SYPRO Ruby

Reference: patent US9193746B2, “Luminescent metal complexes and associated technology” (BIOTIUM, INC., priority 2006, dated 2015)
